# Measured values as given in patent US10787416B1, “Crystals of intermediate for benzindene prostaglandins and methods for preparation thereof” (CHIROGATE INTERNATIONAL INC., priority 2020, dated 2020).
# Assays:
# [1] = Storage stability of the crystalline forms at room temperature; format: physicochemical; conditions: room temperature for six months
# [2] = Crystalline form conversion by grinding; format: physicochemical; conditions: grinding at room temperature for about 10 minutes
Structure (SMILES),stability (other crystalline forms or degraded products of impurities) [1],crystalline form transformation on grinding [2]
"CCCCC[C@H](O)CC[C@@H]1[C@H]2Cc3cccc(OCC#N)c3C[C@H]2C[C@H]1O [Form I, 2-(((1R,2R,3aS,9aS)-2-hydroxy-1-((S)-3-hydroxyoctyl)-2,3,3a,4,9,9a-hexahydro-1H-cyclopenta[b]naphthalen-5-yl)oxy)acetonitrile]",no other crystalline forms or degraded products of impurities,–
"CCCCC[C@H](O)CC[C@@H]1[C@H]2Cc3cccc(OCC#N)c3C[C@H]2C[C@H]1O [Form II, 2-(((1R,2R,3aS,9aS)-2-hydroxy-1-((S)-3-hydroxyoctyl)-2,3,3a,4,9,9a-hexahydro-1H-cyclopenta[b]naphthalen-5-yl)oxy)acetonitrile]",–,convert to Form I crystal
